Assay results as given in patent US20230026271A1, “Piperazine Compounds for Inhibiting CPS1” (Eisai R&D Management Co., Ltd., priority 2019, published 2023).

Key:
[1] = biological target: T1, CPS1 (Homo sapiens, UniProt P31327); test: Assay 2 - Transcreener ADP FP assay (ADP formation from CPS1); format: biochemical; details: 10 nM CPS1, varying amounts of ATP, 60 min, fluorescence polarization
T1 construct: The full length, human CPS1 gene was cloned into pFastBac HTA; His6 (from the pFastBac HTA vector); made in house; host or cells: SF21 insect cells (baculovirus, Bac-to-bac)
T1 sequence (P31327 39-1500): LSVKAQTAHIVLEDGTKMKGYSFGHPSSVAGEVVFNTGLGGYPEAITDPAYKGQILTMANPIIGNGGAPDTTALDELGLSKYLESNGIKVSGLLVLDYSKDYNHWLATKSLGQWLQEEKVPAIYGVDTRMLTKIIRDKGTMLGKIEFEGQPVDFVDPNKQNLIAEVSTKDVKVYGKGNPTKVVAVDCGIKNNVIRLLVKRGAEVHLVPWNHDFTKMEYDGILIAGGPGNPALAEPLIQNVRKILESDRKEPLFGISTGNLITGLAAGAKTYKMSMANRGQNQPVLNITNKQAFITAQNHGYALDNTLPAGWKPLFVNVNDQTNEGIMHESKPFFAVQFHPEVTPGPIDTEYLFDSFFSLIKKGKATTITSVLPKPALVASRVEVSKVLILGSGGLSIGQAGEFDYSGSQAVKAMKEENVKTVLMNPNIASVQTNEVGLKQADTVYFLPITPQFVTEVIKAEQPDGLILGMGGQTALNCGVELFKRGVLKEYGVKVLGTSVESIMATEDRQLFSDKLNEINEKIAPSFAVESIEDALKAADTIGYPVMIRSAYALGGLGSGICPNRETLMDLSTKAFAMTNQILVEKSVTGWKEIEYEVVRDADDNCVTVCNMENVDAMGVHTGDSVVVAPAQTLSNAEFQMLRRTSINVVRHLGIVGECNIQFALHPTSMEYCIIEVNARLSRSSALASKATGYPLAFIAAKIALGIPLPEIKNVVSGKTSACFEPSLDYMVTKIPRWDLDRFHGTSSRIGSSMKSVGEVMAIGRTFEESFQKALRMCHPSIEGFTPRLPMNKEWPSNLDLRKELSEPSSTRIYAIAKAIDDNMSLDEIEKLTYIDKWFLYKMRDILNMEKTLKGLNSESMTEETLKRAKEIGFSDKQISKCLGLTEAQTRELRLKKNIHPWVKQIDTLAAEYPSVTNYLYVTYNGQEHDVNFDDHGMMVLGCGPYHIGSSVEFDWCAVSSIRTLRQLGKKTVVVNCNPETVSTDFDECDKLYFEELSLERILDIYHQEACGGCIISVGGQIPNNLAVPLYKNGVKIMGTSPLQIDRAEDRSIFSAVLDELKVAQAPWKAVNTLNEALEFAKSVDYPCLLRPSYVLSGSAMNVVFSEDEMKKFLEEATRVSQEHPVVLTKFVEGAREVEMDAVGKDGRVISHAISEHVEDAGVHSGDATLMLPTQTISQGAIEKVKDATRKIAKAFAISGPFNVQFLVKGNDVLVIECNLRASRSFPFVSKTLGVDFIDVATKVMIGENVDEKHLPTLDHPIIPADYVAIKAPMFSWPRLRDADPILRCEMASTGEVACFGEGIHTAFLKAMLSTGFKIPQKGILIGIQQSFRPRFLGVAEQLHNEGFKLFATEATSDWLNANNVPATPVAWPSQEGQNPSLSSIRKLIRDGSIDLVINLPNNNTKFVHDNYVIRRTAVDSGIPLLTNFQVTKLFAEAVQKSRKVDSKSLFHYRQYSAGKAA
Experimental: CPS1 was expressed and purified from SF21 insect cells. The full length, human CPS1 gene was cloned into pFastBac HTA and baculovirus was generated using the Bac-to-bac expression system from Invitrogen. P3 virus was used to infect SF21 insect cells at a density of 1.5E6 cells/mL at an MOI of 2. Cells were harvested by centrifugation after 60 hrs and the cell pellet resuspended in lysis buffer (50 mM glycyl glycine pH 7.4, 20 mM KCl, 1 mM TCEP, 10% glycerol and 20 mM imidazole with Roche protease inhibitor tablet) before being lysed with 40 strokes of a Dounce homogenizer on ice. The insoluble fraction of the lysate was then cleared by centrifugation at 30,000 rpm for 30 min. 40 mL of supernatant was mixed with 2 mL of Ni NTA beads for 45 min at 4° C. in a 50 mL conical tube.
The beads were washed with 40 mL of wash buffer (50 mM glycyl glycine pH 7.4, 500 mM NaCl, 1 mM TCEP, 10% glycerol and 50 mM imidazole) by centrifugation and resuspension of the beads three times. Bound CPS1 protein was eluted in 6 mL of elution buffer (50 mM glycyl glycine pH 7.4, 500 mM NaCl, 1 mM TCEP, 10% glycerol and 250 mM imidazole) three times. Elution fractions were combined and concentrated using an Amicon Ultra centrifugation filter with a 10,000 molecular weight cut off. […]
ADP formation from CPS1 was measured in an endpoint assay using the Transcreener ADP FP kit from BellBbrook (Cat #3010-1K).

[2] = biological target: T1, CPS1; test: ADP-Glo endpoint assay measuring the ATPase activity of CPS1; format: biochemical; details: geometric mean of a minimum of two values; 50 nM CPS1, 10 μM ATP, 0.2 mM NAG, 60 min at room temperature; read-out: ADPGlo IC50
Procedure, shortened: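 Full-length human His-tagged CPS1 from SF21 insect cells, 50 nM, preincubated 20 min with compound in pH 7.0 HEPES buffer containing KHCO3, (NH4)2SO3, MgCl2 and 0.2 mM NAG. Reaction started with 10 μM ATP, 60 min at room temperature; ADP formed detected by ADP-Glo luminescence.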

IC50 [1]	IC50 [2]	SMILES
> 66.7 µM		COc1ccc(C(=O)N2[C@H](C)CN(C(=O)c3cc(OC)ccc3F)C[C@@H]2C)c(F)c1 [Compound 108, ((3S,5R)-4-(2-fluoro-4-methoxybenzoyl)-3,5-dimethylpiperazin-1-yl)(2-fluoro-5-methoxyphenyl)methanone]
	1.44 µM	COc1ccc(C(=O)N2C[C@@H](C)N(C(=O)c3ccc(F)cc3F)[C@H](C)C2)c(F)c1 [Compound 32, ((3R,5R)-4-(2,4-difluorobenzoyl)-3,5-dimethylpiperazin-1-yl)(2-fluoro-4-methoxyphenyl)methanone]
	37.7 µM	COc1ccc(C(=O)N2[C@H](C)CN(C(=O)c3c[nH]c4ccc(F)cc34)C[C@H]2C)c(F)c1 [Compound 87, (5-fluoro-1H-indol-3-yl)((3R,5R)-4-(2-fluoro-4-methoxybenzoyl)-3,5-dimethylpiperazin-1-yl)methanone]
	2.78 µM	COc1ccc(C(=O)N2[C@H](C)CN(C(=O)c3ccc(NC(C)=O)cc3F)C[C@H]2C)c(F)c1 [Compound 8, N-(3-Fluoro-4-((3R,5R)-4-(2-fluoro-4-methoxybenzoyl)-3,5-dimethylpiperazine-1-carbonyl)phenyl)acetamide]
	0.545 µM	COc1ccc(C(=O)N2[C@H](C)CN(C(=O)c3ccc(OC)c(F)c3)C[C@H]2C)c(F)c1 [Compound 4, ((2R,6R)-4-(3-Fluoro-4-methoxybenzoyl)-2,6-dimethylpiperazin-1-yl)(2-fluoro-4-methoxyphenyl)methanone]
	> 66.7 µM	COc1ccc(C(=O)N2C[C@@H](C)N(C(=O)c3ccc(OC)cc3Cl)[C@H](C)C2)c(F)c1 [Compound 94, ((3R,5R)-4-(2-chloro-4-methoxybenzoyl)-3,5-dimethylpiperazin-1-yl)(2-fluoro-4-methoxyphenyl)methanone]
	1.19 µM	COc1ccc(C(=O)N2C[C@@H](C)N(C(=O)c3ccc(OC(F)(F)F)cc3F)[C@H](C)C2)c(F)c1 [Compound 31, ((3R,5R)-4-(2-fluoro-4-(trifluoromethoxy)benzoyl)-3,5-dimethylpiperazin-1-yl)(2-fluoro-4-methoxyphenyl)methanone]
	42.7 µM	COc1ccc(C(=O)N2[C@H](C)CN(C(=O)Cc3c[nH]c4cccnc34)C[C@H]2C)c(F)c1 [Compound 89, 1-((3R,5R)-4-(2-fluoro-4-methoxybenzoyl)-3,5-dimethylpiperazin-1-yl)-2-(1H-pyrrolo[3,2-b]pyridin-3-yl)ethanone]
	6.04 µM	COc1ccc(C(=O)N2CCN(C(=O)c3ccc(OC)cc3F)[C@H](C)C2)c(F)c1 [Compound 46, (R)-(2-methylpiperazine-1,4-diyl)bis((2-fluoro-4-methoxyphenyl)methanone)]
	2.81 µM	COc1ccc(C(=O)N2[C@H](C)CN(C(=O)c3ccc(OC)cc3Cl)C[C@H]2C)c(F)c1 [Compound 11, ((2R,6R)-4-(2-Chloro-4-methoxybenzoyl)-2,6-dimethylpiperazin-1-yl)(2-fluoro-4-methoxyphenyl)methanone]
	0.255 µM	COc1ccc(C(=O)N2C[C@@H](C)N(C(=O)c3c(F)cc(SC)cc3F)[C@H](C)C2)c(F)c1 [Compound 25, ((3R,5R)-4-(2,6-difluoro-4-(methylthio)benzoyl)-3,5-dimethylpiperazin-1-yl)(2-fluoro-4-methoxyphenyl)methanone]
	0.909 µM	COc1ccc(C(=O)N2C[C@@H](C)N(C(=O)c3c(C)cc(OC)cc3F)[C@H](C)C2)c(F)c1 [Compound 28, ((3R,5R)-4-(2-Fluoro-4-methoxy-6-methylbenzoyl)-3,5-dimethylpiperazin-1-yl)(2-fluoro-4-methoxyphenyl)methanone]
	1.15 µM	COc1ccc(C(=O)N2[C@H](C)CN(C(=O)c3c[nH]c4c(Cl)cccc34)C[C@H]2C)c(F)c1 [Compound 36, (7-Chloro-1H-indol-3-yl)((3R,5R)-4-(2-fluoro-4-methoxybenzoyl)-3,5-dimethylpiperazin-1-yl)methanone]
	0.552 µM	COc1ccc(C(=O)N2[C@H](C)CN(C(=O)c3c(F)cc(SC)cc3F)C[C@H]2C)c(F)c1 [Compound 16, ((2R,6R)-4-(2,6-Difluoro-4-(methylthio)benzoyl)-2,6-dimethylpiperazin-1-yl)(2-fluoro-4-methoxyphenyl)methanone]
	3.58 µM	COc1ccc(C(=O)N2C[C@@H](C)N(C(=O)c3ccc(-c4cnco4)cc3)[C@H](C)C2)c(F)c1 [Compound 39, ((3R,5R)-3,5-Dimethyl-4-(4-(oxazol-5-yl)benzoyl)piperazin-1-yl)(2-fluoro-4-methoxyphenyl)methanone]
	7.45 µM	COc1ccc(C(=O)N2[C@H](C)CN(C(=O)c3ccc4c(c3)CCO4)C[C@H]2C)c(F)c1 [Compound 21, ((2R,6R)-4-(2,3-Dihydrobenzofuran-5-carbonyl)-2,6-dimethylpiperazin-1-yl)(2-fluoro-4-methoxyphenyl)methanone]
	4.22 µM	COc1ccc(C(=O)N2C[C@@H](C)N(C(=O)/C=C/c3ccc(O)cc3)[C@H](C)C2)c(F)c1 [Compound 106, (E)-1-((2R,6R)-4-(2-fluoro-4-methoxybenzoyl)-2,6-dimethylpiperazin-1-yl)-3-(4-hydroxypheny)prop-2-en-1-one]
	2.2 µM	COc1ccc(C(=O)N2[C@H](C)CN(C(=O)c3ccc(C)cc3F)C[C@H]2C)c(F)c1 [Compound 14, ((3R,5R)-4-(2-Fluoro-4-methoxybenzoyl)-3,5-dimethylpiperazin-1-yl)(2-fluoro-4-methylphenyl)methanone]
	36.1 µM	COc1ccc(C(=O)N2CCN(C(=O)c3ccc(OC)cc3F)C(C)C2C)c(F)c1 (stereo not shown) [Compound 86, (2,3-dimethylpiperazine-1,4-diyl)bis((2-fluoro-4-methoxyphenyl)methanone)]
